According to ChEMBL document CHEMBL1201862, “PubChem BioAssay data set” (2004):
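Interpolation was linear, between the two tested concentrations surrounding the appropriate level; five concentrations were tested over 48 hours in 96-well plates. Here, GI50 denotes the concentration required for 50% inhibition of growth.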 Activity calls are given as the source filed them. Cut-off read from the data, not from the text of the source: active = GI50 up to about 1.1 µM and inactive = higher.

Experiments:
Experiment in all cases: NCI-60 cell line screen, 48 h
MDA-MB-231 = tested on: MDA-MB-231
BT-549 = tested on: BT-549
SN12C = tested on: SN12C
SF-295 = tested on: SF-295
MDA-MB-435 = tested on: MDA-MB-435
UO-31 = tested on: UO-31
SR = tested on: SR
NCI-H460 = tested on: NCI-H460
SK-OV-3 = tested on: SK-OV-3
T47D = tested on: T47D
SNB-75 = tested on: SNB-75
PC-3 = tested on: PC-3
U-251 = tested on: U-251
NCI-H226 = tested on: NCI-H226
RXF 393 = tested on: RXF 393
HOP-62 = tested on: HOP-62
CAKI-1 = tested on: CAKI-1
A549 = tested on: A549
SW-620 = tested on: SW-620
MCF7 = tested on: MCF7
MOLT-4 = tested on: MOLT-4
OVCAR-3 = tested on: OVCAR-3
OVCAR-5 = tested on: OVCAR-5
UACC-257 = tested on: UACC-257
Hs-578T = tested on: Hs-578T
A498 = tested on: A498
K562 = tested on: K562
TK-10 = tested on: TK-10
RPMI-8226 = tested on: RPMI-8226
Malme-3M = tested on: Malme-3M
COLO 205 = tested on: COLO 205
MDA-N = tested on: MDA-N
SK-MEL-2 = tested on: SK-MEL-2
OVCAR-4 = tested on: OVCAR-4
CCRF-CEM = tested on: CCRF-CEM
HCT-15 = tested on: HCT-15
NCI/ADR-RES = tested on: NCI/ADR-RES
HT-29 = tested on: HT-29
SK-MEL-5 = tested on: SK-MEL-5
OVCAR-8 = tested on: OVCAR-8
ACHN = tested on: ACHN
DU-145 = tested on: DU-145
M14 = tested on: M14
NCI-H23 = tested on: NCI-H23
UACC-62 = tested on: UACC-62
SF-268 = tested on: SF-268
SK-MEL-28 = tested on: SK-MEL-28
EKVX = tested on: EKVX
HCT-116 = tested on: HCT-116
SNB-19 = tested on: SNB-19
786-0 = tested on: 786-0
HCC 2998 = tested on: HCC 2998
LOX IMVI = tested on: LOX IMVI
KM12 = tested on: KM12
IGROV-1 = tested on: IGROV-1
NCI-H522 = tested on: NCI-H522
SF-539 = tested on: SF-539
HOP-92 = tested on: HOP-92
HL-60 = tested on: HL-60

For `Cc1ccc(S(=O)(=O)N/N=C2\C(=O)Nc3cc(O)c(C(=O)O)cc32)cc1`, the GI50 (MDA-MB-231) was > 100 µM (inactive), the GI50 (BT-549) was > 100 µM (inactive) and the GI50 (SN12C) was > 100 µM (inactive). For the same compound, the GI50 (SF-295) was > 100 µM (inactive), the GI50 (MDA-MB-435) was > 100 µM (inactive) and the GI50 (UO-31) was > 100 µM (inactive). For the same compound, the GI50 (SR) was > 100 µM (inactive), the GI50 (NCI-H460) was > 100 µM (inactive) and the GI50 (SK-OV-3) was > 100 µM (inactive). For the same compound, the GI50 (T47D) was > 100 µM (inactive), the GI50 (SNB-75) was > 100 µM (inactive) and the GI50 (PC-3) was > 100 µM (inactive). The GI50 (U-251) was > 100 µM (inactive), the GI50 (NCI-H226) was > 100 µM (inactive) and the GI50 (RXF 393) was > 100 µM (inactive). For the same compound, the GI50 (HOP-62) was > 100 µM (inactive), the GI50 (CAKI-1) was > 100 µM (inactive) and the GI50 (A549) was > 100 µM (inactive). The GI50 (SW-620) was > 100 µM (inactive), the GI50 (MCF7) was > 100 µM (inactive) and the GI50 (MOLT-4) was > 100 µM (inactive). For the same compound, the GI50 (OVCAR-3) was > 100 µM (inactive), the GI50 (OVCAR-5) was > 100 µM (inactive) and the GI50 (UACC-257) was > 100 µM (inactive). For the same compound, the GI50 (Hs-578T) was > 100 µM (inactive), the GI50 (A498) was > 100 µM (inactive) and the GI50 (K562) was > 100 µM (inactive). For the same compound, the GI50 (TK-10) was > 100 µM (inactive), the GI50 (RPMI-8226) was > 100 µM (inactive) and the GI50 (Malme-3M) was > 100 µM (inactive). For the same compound, the GI50 (COLO 205) was > 100 µM (inactive), the GI50 (MDA-N) was > 100 µM (inactive) and the GI50 (SK-MEL-2) was > 100 µM (inactive). For the same compound, the GI50 (OVCAR-4) was > 100 µM (inactive), the GI50 (CCRF-CEM) was > 100 µM (inactive) and the GI50 (HCT-15) was greater than 100 µM. For the same compound, the GI50 (NCI/ADR-RES) was > 100 µM (inactive), the GI50 (HT-29) was > 100 µM (inactive) and the GI50 (SK-MEL-5) was > 100 µM (inactive). For the same compound, the GI50 (OVCAR-8) was > 100 µM (inactive), the GI50 (ACHN) was > 100 µM (inactive) and the GI50 (DU-145) was > 100 µM (inactive). The GI50 (M14) was > 100 µM (inactive), the GI50 (NCI-H23) was > 100 µM (inactive) and the GI50 (UACC-62) was > 100 µM (inactive). The GI50 (SF-268) was > 100 µM (inactive), the GI50 (SK-MEL-28) was > 100 µM (inactive) and the GI50 (EKVX) was 61.8 µM (inactive). The GI50 (HCT-116) was > 100 µM (inactive), the GI50 (SNB-19) was > 100 µM (inactive) and the GI50 (786-0) was > 100 µM (inactive). For the same compound, the GI50 (HCC 2998) was > 100 µM (inactive), the GI50 (LOX IMVI) was > 100 µM (inactive) and the GI50 (KM12) was > 100 µM (inactive). For the same compound, the GI50 (IGROV-1) was > 100 µM (inactive) and the GI50 (NCI-H522) was > 100 µM (inactive).

In the case of `COC(=O)C1Cc2cc3c(cc2C1)CCC3`, the GI50 (MDA-MB-231) is reported as > 100 µM (inactive), the GI50 (BT-549) is reported as > 100 µM (inactive) and the GI50 (SN12C) is reported as > 100 µM (inactive). The GI50 (SF-295) was > 100 µM (inactive), the GI50 (MDA-MB-435) was > 100 µM (inactive) and the GI50 (UO-31) was > 100 µM (inactive). For the same compound, the GI50 (SR) was > 100 µM (inactive), the GI50 (NCI-H460) was > 100 µM (inactive) and the GI50 (SK-OV-3) was > 100 µM (inactive). The GI50 (T47D) was > 100 µM (inactive), the GI50 (SF-539) was > 100 µM (inactive) and the GI50 (SNB-75) was > 100 µM (inactive). The GI50 (PC-3) was > 100 µM (inactive), the GI50 (U-251) was > 100 µM (inactive) and the GI50 (NCI-H226) was > 100 µM (inactive). For the same compound, the GI50 (RXF 393) was > 100 µM (inactive), the GI50 (HOP-62) was > 100 µM (inactive) and the GI50 (CAKI-1) was > 100 µM (inactive). For the same compound, the GI50 (A549) was > 100 µM (inactive), the GI50 (SW-620) was > 100 µM (inactive) and the GI50 (MCF7) was > 100 µM (inactive). The GI50 (MOLT-4) was > 100 µM (inactive), the GI50 (OVCAR-3) was > 100 µM (inactive) and the GI50 (OVCAR-5) was > 100 µM (inactive). For the same compound, the GI50 (UACC-257) was > 100 µM (inactive), the GI50 (Hs-578T) was > 100 µM (inactive) and the GI50 (A498) was > 100 µM (inactive). For the same compound, the GI50 (K562) was > 100 µM (inactive), the GI50 (TK-10) was 3.65 µM (inactive) and the GI50 (RPMI-8226) was > 100 µM (inactive). The GI50 (Malme-3M) was > 100 µM (inactive), the GI50 (COLO 205) was > 100 µM (inactive) and the GI50 (MDA-N) was > 100 µM (inactive). For the same compound, the GI50 (SK-MEL-2) was > 100 µM (inactive), the GI50 (OVCAR-4) was > 100 µM (inactive) and the GI50 (CCRF-CEM) was > 100 µM (inactive). The GI50 (HCT-15) was greater than 100 µM, the GI50 (HOP-92) was 34 µM (inactive) and the GI50 (NCI/ADR-RES) was > 100 µM (inactive). The GI50 (HT-29) was 68.9 µM (inactive), the GI50 (SK-MEL-5) was > 100 µM (inactive) and the GI50 (OVCAR-8) was > 100 µM (inactive). For the same compound, the GI50 (ACHN) was > 100 µM (inactive), the GI50 (DU-145) was > 100 µM (inactive) and the GI50 (M14) was > 100 µM (inactive). For the same compound, the GI50 (NCI-H23) was > 100 µM (inactive), the GI50 (HL-60) was > 100 µM (inactive) and the GI50 (UACC-62) was > 100 µM (inactive). The GI50 (SF-268) was > 100 µM (inactive), the GI50 (SK-MEL-28) was > 100 µM (inactive) and the GI50 (EKVX) was > 100 µM (inactive). For the same compound, the GI50 (HCT-116) was > 100 µM (inactive), the GI50 (SNB-19) was > 100 µM (inactive) and the GI50 (786-0) was > 100 µM (inactive). The GI50 (HCC 2998) was > 100 µM (inactive), the GI50 (LOX IMVI) was > 100 µM (inactive) and the GI50 (KM12) was > 100 µM (inactive). The GI50 (IGROV-1) was > 100 µM (inactive).
